Laboratory results: US4460576A, “Peptide and hormone agent containing the same as effective ingredient” (Kaken Pharmaceutical Co., Ltd., priority 1982, dated 1984)
“And” between values parts separate entries of the source, which are not always exact repeats. Identical values can stand only once. Positions of bridges follow the written chain, without caps; N, C: chain ends. Residues, ends and D or L forms follow the SMILES beside them. No end group written: not given here.

How the values were obtained:
[1] = test system: anterior pituitaries obtained from male Wistar Rats; assay: GH release from pieces of rat anterior pituitaries on a column, radioimmunoassay (Pharmacological Test Example 1); format: cell-based
Protocol: Small pieces of anterior pituitaries obtained from male Wistar Rats were placed on top of a column being an injection cylinder having one […] diameter packed with 0.3 to 0.5 ml. of Sephadex G 25 equilibrated with a Krebs-Ringer buffer solution containing 0.1% calf serum at a flow rate of 0.5 ml./min. On the column were chromatographed 1 ml. of a control solution (a Klebs-Ringer buffer solution), 1 ml. of 2 μg./ml. solution of TRH and 1 ml. of 2 μg./ml. solution of the GH--RH obtained in Example 1 in that order. The column effluent was collected in 1 ml.-fractions and each fraction was analyzed by means of a radioimmunoassay with an anti-rat GH antibody (NIH standard) to determine an amount of the released rat GH in the assay.

[2] = R. Guillemin et al, Science, 218, p.585 (1982); cited from earlier work
[3] = test system: Male Wistar rats; assay: GH-releasing activity of [Gln^16 ]--GH--RH in vivo, plasma GH by RIA (Pharmacological Test Example 3); parameters: species or system rat; settings: for GH Concentration, individual rats / GH Concentration Mean ± S.E.: plasma; for GH Concentration, individual rats: rats G, H, I, J, K, L in order; for GH Concentration Mean ± S.E.: procedure of Test Example 2, six rats G to L
Protocol: Male Wistar rats of 10 weeks old were used. The rats were anesthetized with pentobarbital administered intraperitoneally (i.p.) in a dosage of 50 mg./kg. and fixed. Silastic tube (Dow Corning 0.020 in I.D., by 0.037 in O.D.) cannula of 3.5 cm was inserted to the heart side of right jugular vein in the rat. In the rat with chronic vein-cannula in plant, the other side of the cannula was taken out by 3 cm. from backside of neck and fixed on outer layer of skin.
From the cannula was injected 0.5 ml. of 20 units/ml. heparin, and then the cannula was pluged with a stainless-steel wire stopper. The rats were subjected to injecting of GH--RH and blood-gathering under non-anesthetic condition on the next day. Chlorpromazine hydrochloride was administered i.p. before 4 hrs. of injection in a dosage of 2 mg./kg. Four rats (D to G) received injection from the cannula of 440 μg./kg. of GH--RH obtained from salmon in Example 1. Three rats (A to C) received physiological saline as a control.
From each rat, 0.5 ml. of blood was gathered before 15 minutes of injection and after 15, 30, 60, 120 and 180 minutes of injection.
The gathered blood was centrifuged at 2,000×g for 10 minutes. For measuring GH-releasing activity, the supernatant (plasma) was assayed by means of a radio immuno assay (hereinafter referred to as "RIA") according to a double antibody method (see C. A. Birge et al Endocrinology 81, p.195 (1967)). The RIA of rat GH was carried out by employing NIH kit. The results are shown in Table 4 and FIG. 8 in which symbols A to G described in Table 4 correspond to those described in FIG. 8.
The procedure of Pharmacological Test Example 2 was repeated except that six rats were used, respectively, as to the group receiving [Gln^16 ]--GH--RH and as to the group receiving physiological saline and the blood-gathering was carried out before 15 minutes of injection and after 15, 30, 60, 120, 180, 240 and 300 minutes, respectively, of injection.

thyrotropic releasing hormone [TRH]
Amount of Released Rat GH ([1]; 1 ml. of 2 μg./ml. solution on the column, RIA with anti-rat GH antibody): 300 ng/mL | releasing manner of GH ([1]; elution profile of released GH): broad

hpGRF: GH-releasing factor isolated from human pancreatic cancer (YADAIFTNSYRKVLGQLSARKLLQDIMSRQQGESNQERGARARL; ends and bridges not checked; UniProt P01286 32-75, looked up)
time after injection at which increase of GH is shown [2]: 5 min

CSCC[C@@H]1NC(=O)[C@@H](NC(=O)[C@H](CCCNC(=N)N)NC(=O)[C@H](CCSC)NC(=O)[C@@H](NC(=O)[C@@H](N)CC(=O)O)[C@@H](C)O)CSSC[C@@H](C(=O)N[C@@H](Cc2c[nH]c3ccccc23)C(=O)N[C@@H](CCC(N)=O)C(=O)N[C@H](C(=O)O)C(C)C)NC(=O)[C@@H]2CCCN2C(=O)[C@H](CCCNC(=N)N)NC(=O)[C@H](Cc2ccc(O)cc2)NC(=O)[C@H](C(C)C)NC(=O)[C@H](CCCNC(=N)N)NC(=O)CNC(=O)[C@H](C(C)C)NC1=O [[Gln^16]--GH--RH] (H-DTMRCMVGRVYRPCWQV-OH; disulfide 5-14)
increase of GH concentration in plasma compared with the control group ([3]; FIG. 9): evident increase of GH concentration in plasma was observed from 30 to 60 minutes after injection | GH Concentration, individual rats ([3]; 15 min after injection): 10.04 μIU/ml. and 9.76 μIU/ml. and 7.20 μIU/ml. and 11.52 μIU/ml. and 7.64 μIU/ml. and 8.08 μIU/ml. | GH Concentration, individual rats ([3]; 30 min after injection): 9.80 μIU/ml. and 7.72 μIU/ml. and 34.84 μIU/ml. and 8.36 μIU/ml. and 30.68 μIU/ml. and 57.80 μIU/ml. | GH Concentration, individual rats ([3]; 60 min after injection): 56.52 μIU/ml. and 47.00 μIU/ml. and 63.40 μIU/ml. and 115.36 μIU/ml. and 21.48 μIU/ml. and 44.88 μIU/ml. | GH Concentration, individual rats ([3]; 120 min after injection): 22.48 μIU/ml. and 29.32 μIU/ml. and 23.56 μIU/ml. and 18.08 μIU/ml. and 13.24 μIU/ml. and 11.52 μIU/ml. | GH Concentration, individual rats ([3]; 180 min after injection): 10.08 μIU/ml. and 9.72 μIU/ml. and 10.56 μIU/ml. and 10.24 μIU/ml. and 9.48 μIU/ml. and 8.20 μIU/ml. | GH Concentration, individual rats ([3]; 240 min after injection): 25.84 μIU/ml. and 8.36 μIU/ml. and 30.00 μIU/ml. and 36.48 μIU/ml. and 7.80 μIU/ml. and 11.52 μIU/ml. | GH Concentration, individual rats ([3]; 300 min after injection): 12.36 μIU/ml. and 12.08 μIU/ml. and 10.32 μIU/ml. and 16.64 μIU/ml. and 12.96 μIU/ml. and 10.76 μIU/ml. | GH Concentration, individual rats ([3]; -15 min (before injection)): 10.52 μIU/ml. and 9.36 μIU/ml. and 8.56 μIU/ml. and 6.32 μIU/ml. and 7.20 μIU/ml. and 8.96 μIU/ml. | GH Concentration Mean ± S.E. ([3]; 15 min after injection): 9.04 ± 0.68 μIU/ml. | GH Concentration Mean ± S.E. ([3]; 30 min after injection): 24.87 ± 8.19 μIU/ml. | GH Concentration Mean ± S.E. ([3]; 60 min after injection): 58.11 ± 12.84 μIU/ml. | GH Concentration Mean ± S.E. ([3]; 120 min after injection): 19.70 ± 2.75 μIU/ml. | GH Concentration Mean ± S.E. ([3]; 180 min after injection): 9.71 ± 0.34 μIU/ml. | GH Concentration Mean ± S.E. ([3]; 240 min after injection): 20.00 ± 5.04 μIU/ml. | GH Concentration Mean ± S.E. ([3]; 300 min after injection): 12.52 ± 0.92 μIU/ml. | GH Concentration Mean ± S.E. ([3]; -15 min (before injection)): 8.49 ± 0.62 μIU/ml. | GH-releasing effect ([3]; rats in vivo): has a GH-releasing effect
